Key:
[1] = system: Beet Armyworm (BAW) (Spodoptera exigua); assay: Bioassays on Beet Armyworm (BAW), 128-well diet tray assay; type: in vivo; conditions: 168 h, 50 μg/cm^2 test compound on artificial diet, second instar larvae, 25° C., five to seven days, average of eight wells, read-out: BAW Rating (% mortality)
Procedure: (§1) Certain molecules disclosed in this document were tested against BAW and CEW using procedures described in the following examples. In the reporting of the results, the “BAW & CEW Rating Table” was used (See Table Section).
Bioassays on BAW (Spodoptera exigua)
Bioassays on BAW were conducted using a 128-well diet tray assay. one to five second instar BAW larvae were placed in each well (3 mL) of the diet tray that had been previously filled with 1 mL of artificial diet to which 50 μg/cm^2 of the test compound (dissolved in 50 μL of 90:10 acetone-water mixture) had been applied (to each of eight wells) and then allowed to dry. Trays were covered with a clear self-adhesive cover, and held at 25° C., 14:10 light-dark for five to seven days. Percent mortality was recorded for the larvae in each well; activity in the eight wells was then averaged. The results are indicated in the table entitled “Table 3: Assay Results” (See Table Section).

[2] = system: Corn Earworm (CEW) (Helicoverpa zea); assay: Bioassays on Corn Earworm (CEW), 128-well diet tray assay; type: in vivo; conditions: 168 h, 50 μg/cm^2 test compound on artificial diet, second instar larvae, 25° C., five to seven days, average of eight wells, read-out: CEW Rating (% mortality)
Procedure: as §1
Bioassays on CEW (Helicoverpa zea)
Bioassays on CEW were conducted using a 128-well diet tray assay. one to five second instar CEW larvae were placed in each well (3 mL) of the diet tray that had been previously filled with 1 mL of artificial diet to which 50 μg/cm^2 of the test compound (dissolved in 50 μL of 90:10 acetone-water mixture) had been applied (to each of eight wells) and then allowed to dry. Trays were covered with a clear self-adhesive cover, and held at 25° C., 14:10 light-dark for five to seven days. Percent mortality was recorded for the larvae in each well; activity in the eight wells was then averaged. The results are indicated in the table entitled “Table 3: Assay Results” (See Table Section).

SMILES | mortality at 50 µg/cm2 [1] | mortality at 50 µg/cm2 [2]
O=C(NCC(=S)NCC(F)(F)F)c1ccc(/C=C/C(c2cc(Cl)c(Cl)c(Cl)c2)C(F)(F)F)cc1Br (stereo not drawn) [AC92, (E)-2-bromo-N-(2-thioxo-2-((2,2,2-trifluoroethyl)amino)ethyl)-4-(4,4,4-trifluoro-3-(3,4,5-trichlorophenyl)but-1-en-1-yl)benzamide] | 50 to 100% | 50 to 100%
Cc1cc(/C=C\C(c2cc(Cl)cc(Cl)c2)C(F)(F)F)ccc1C(=O)NCC(=O)NC1CC1 (stereo not drawn) [AC93] | 50 to 100% | 0%
Cc1cc(/C=C\C(c2cc(Cl)cc(Cl)c2)C(F)(F)F)ccc1C(=O)NCc1ccc(Cl)nc1 (stereo not drawn) [AC94] | 0% | 0 to 50%
O=C(CNC(=O)c1ccc(/C=C\C(c2cc(Cl)c(Cl)c(Cl)c2)C(F)(F)F)cc1Br)NCC(F)(F)F (stereo not drawn) [AC95, (Z)-2-bromo-N-(2-oxo-2-((2,2,2-trifluoroethyl)amino)ethyl)-4-(4,4,4-trifluoro-3-(3,4,5-trichlorophenyl)but-1-en-1-yl)benzamide] | 50 to 100% | 50 to 100%
CN(C)c1ccc(CNC(=O)c2ccc(/C=C/C(c3cc(Cl)c(Cl)c(Cl)c3)C(F)(F)F)cc2Br)cn1 (stereo not drawn) [AC96] | 0% | 0%
COc1ccc(CNC(=O)c2ccc(/C=C/C(c3cc(Cl)c(Cl)c(Cl)c3)C(F)(F)F)cc2Br)cn1 (stereo not drawn) [AC97] | 0% | 0%
O=C(CNC(=O)c1ccc(/C=C/C(c2cc(Cl)c(F)c(Cl)c2)C(F)(F)F)cc1[N+](=O)[O-])NCC(F)(F)F (stereo not drawn) [AC98] | 50 to 100% | 50 to 100%
O=C(CNC(=O)c1ccc(/C=C/C(c2ccc(F)c(Cl)c2)C(F)(F)F)cc1Br)NCC(F)(F)F (stereo not drawn) [AC99] | 50 to 100% | 50 to 100%
O=C(c1ccc(/C=C/C(c2cc(Cl)c(Cl)c(Cl)c2)C(F)(F)F)cc1Br)N1CCN(CC(F)(F)F)CC1 (stereo not drawn) [AC101] | 0% | 0%
O=C(CNC(=O)c1ccc(/C=C/C(c2cc(F)c(Cl)c(F)c2)C(F)(F)F)cc1Br)NCC(F)(F)F (stereo not drawn) [AC102] | 0% | 50 to 100%
CC(=O)N1CCC(NC(=O)c2ccc(/C=C/C(c3cc(Cl)c(Cl)c(Cl)c3)C(F)(F)F)cc2Br)CC1 (stereo not drawn) [AC103, (E)-N-(1-acetylpiperidin-4-yl)-2-bromo-4-(4,4,4-trifluoro-3-(3,4,5-trichlorophenyl)but-1-en-1-yl)benzamide] | 50 to 100% | 50 to 100%
O=C(NC1CCN(C(=O)CC(F)(F)F)CC1)c1ccc(/C=C/C(c2cc(Cl)c(Cl)c(Cl)c2)C(F)(F)F)cc1Br (stereo not drawn) [AC104, (E)-2-bromo-4-(4,4,4-trifluoro-3-(3,4,5-trichlorophenyl)but-1-en-1-yl)-N-(1-(3,3,3-trifluoropropanoyl)piperidin-4-yl)benzamide] | 50 to 100% | 50 to 100%
O=C(NC1CCN(CC(F)(F)F)CC1)c1ccc(/C=C/C(c2cc(Cl)c(Cl)c(Cl)c2)C(F)(F)F)cc1Br (stereo not drawn) [AC105, (E)-2-bromo-4-(4,4,4-trifluoro-3-(3,4,5-trichlorophenyl)but-1-en-1-yl)-N-(1-(2,2,2-trifluoroethyl)piperidin-4-yl)benzamide] | 50 to 100% | 50 to 100%
CN1CCC(NC(=O)c2ccc(/C=C/C(c3cc(Cl)c(Cl)c(Cl)c3)C(F)(F)F)cc2Br)CC1 (stereo not drawn) [AC106, (E)-2-bromo-N-(1-methylpiperidin-4-yl)-4-(4,4,4-trifluoro-3-(3,4,5-trichlorophenyl)but-1-en-1-yl)benzamide] | 50 to 100% | 50 to 100%
N#CCN1CCC(NC(=O)c2ccc(/C=C/C(c3cc(Cl)c(Cl)c(Cl)c3)C(F)(F)F)cc2Br)CC1 (stereo not drawn) [AC107] | 0 to 50% | 50 to 100%
O=C(NC1CCN(C2COC2)CC1)c1ccc(/C=C/C(c2cc(Cl)c(Cl)c(Cl)c2)C(F)(F)F)cc1Br (stereo not drawn) [AC108, (E)-2-bromo-N-(1-(oxetan-3-yl)piperidin-4-yl)-4-(4,4,4-trifluoro-3-(3,4,5-trichlorophenyl)but-1-en-1-yl)benzamide] | 0 to 50% | 0%
O=C(NC1CCN(CCO)CC1)c1ccc(/C=C/C(c2cc(Cl)c(Cl)c(Cl)c2)C(F)(F)F)cc1Br (stereo not drawn) [AC109, (E)-2-bromo-N-(1-(2-hydroxyethyl)piperidin-4-yl)-4-(4,4,4-trifluoro-3-(3,4,5-trichlorophenyl)but-1-en-1-yl)benzamide] | 0% | 0%
CONC(=O)CNC(=O)c1ccc(/C=C/C(c2cc(Cl)c(Cl)c(Cl)c2)C(F)(F)F)cc1Br (stereo not drawn) [AC110] | 50 to 100% | 50 to 100%

SMILES | mortality at 50 µg/cm2 [1] | mortality at 50 µg/cm2 [2]
C=CCNC(=O)CNC(=O)c1ccc(/C=C/C(c2cc(Cl)c(Cl)c(Cl)c2)C(F)(F)F)cc1Br (stereo not drawn) [AC111] | 50 to 100% | 50 to 100%
CN(C)NC(=O)CNC(=O)c1ccc(/C=C/C(c2cc(Cl)c(Cl)c(Cl)c2)C(F)(F)F)cc1Br (stereo not drawn) [AC112] | 50 to 100% | 50 to 100%
O=C(NCCc1ccc(Cl)nc1)c1ccc(/C=C/C(c2cc(Cl)c(Cl)c(Cl)c2)C(F)(F)F)cc1Br (stereo not drawn) [AC113] | 0 to 50% | 50 to 100%
O=C(NC1CCNCC1)c1ccc(/C=C/C(c2cc(Cl)c(Cl)c(Cl)c2)C(F)(F)F)cc1Br (stereo not drawn) [AC114, (E)-2-bromo-N-(piperidin-4-yl)-4-(4,4,4-trifluoro-3-(3,4,5-trichlorophenyl)but-1-en-1-yl)benzamide] | 50 to 100% | 0 to 50%
Cc1cc(/C=C/C(c2cc(Cl)cc(Cl)c2)C(F)(F)F)ccc1C(=S)NCc1ccc(Cl)nc1 (stereo not drawn) [AC115, (E)-N-((6-chloropyridin-3-yl)methyl)-4-(3-(3,5-dichlorophenyl)-4,4,4-trifluorobut-1-en-1-yl)-2-methylbenzothioamide] | 50 to 100% | 50 to 100%
Cc1cc(/C=C/C(c2cc(Cl)cc(Cl)c2)C(F)(F)F)ccc1C(=O)N(C)Cc1ccc(Cl)nc1 (stereo not drawn) [AC117] | 50 to 100% | 0%
Cc1cc(/C=C/C(c2cc(Cl)cc(Cl)c2)C(F)(F)F)ccc1C(=O)NCC1CCCO1 (stereo not drawn) [AC118] | 50 to 100% | 0%
CNC(=S)NC1CCc2cc(/C=C/C(c3cc(Cl)c(Cl)c(Cl)c3)C(F)(F)F)ccc21 (stereo not drawn) [BC1, (E)-1-methyl-3-(5-(4,4,4-trifluoro-3-(3,4,5-trichlorophenyl)-but-1-enyl)-2,3-dihydro-1H-inden-1-yl)thiourea] | 50 to 100% | 50 to 100%
CCNC(=S)NC1CCc2cc(/C=C/C(c3cc(Cl)c(Cl)c(Cl)c3)C(F)(F)F)ccc21 (stereo not drawn) [BC2] | 50 to 100% | 50 to 100%
C=CCNC(=S)NC1CCc2cc(/C=C/C(c3cc(Cl)c(Cl)c(Cl)c3)C(F)(F)F)ccc21 (stereo not drawn) [BC3] | 50 to 100% | 50 to 100%
O=C(CC(F)(F)F)NC1CCc2cc(/C=C/C(c3cc(Cl)c(Cl)c(Cl)c3)C(F)(F)F)ccc21 (stereo not drawn) [BC4, (E)-3,3,3-trifluoro-N-(5-(4,4,4-trifluoro-3-(3,4,5-trichlorophenyl)but-1-enyl)-2,3-dihydro-1H-inden-1-yl)propanamide] | 50 to 100% | 50 to 100%
O=C(CC(F)(F)F)NC1CCCc2cc(/C=C/C(c3cc(Cl)c(Cl)c(Cl)c3)C(F)(F)F)ccc21 (stereo not drawn) [BC5] | 50 to 100% | 50 to 100%
O=C(NC1CCc2cc(/C=C/C(c3cc(Cl)c(Cl)c(Cl)c3)C(F)(F)F)ccc21)C1CC1 (stereo not drawn) [BC6] | 50 to 100% | 50 to 100%
O=C(NC1CCCc2cc(/C=C/C(c3cc(Cl)c(Cl)c(Cl)c3)C(F)(F)F)ccc21)C1CC1 (stereo not drawn) [BC7] | 50 to 100% | 50 to 100%
O=C(CC(F)(F)F)NC1CCc2cc(/C=C/C(c3cc(Cl)c(F)c(Cl)c3)C(F)(F)F)ccc21 (stereo not drawn) [BC8] | 50 to 100% | 50 to 100%
O=C(Cc1ccc(Cl)nc1)NC1CCc2cc(/C=C/C(c3cc(Cl)c(F)c(Cl)c3)C(F)(F)F)ccc21 (stereo not drawn) [BC9] | 50 to 100% | 50 to 100%
Fc1c(Cl)cc(C(/C=C/c2ccc3c(c2)CCC3NCCC(F)(F)F)C(F)(F)F)cc1Cl (stereo not drawn) [BC10, (E)-5-(3-(3,5-dichloro-4-fluorophenyl)-4,4,4-trifluorobut-1-en-1-yl)-N-(3,3,3-trifluoropropyl)-2,3-dihydro-1H-inden-1-amine] | 50 to 100% | 50 to 100%
O=C(CC(F)(F)F)NCC(=O)n1ccc2cc(/C=C/C(c3cc(Cl)c(F)c(Cl)c3)C(F)(F)F)ccc21 (stereo not drawn) [BC13, (E)-N-(2-(5-(3-(3,5-dichloro-4-fluorophenyl)-4,4,4-trifluorobut-1-en-1-yl)-1H-indol-1-yl)-2-oxoethyl)-3,3,3-trifluoropropanamide] | 50 to 100% | 50 to 100%

From patent US9615576B2, “Pesticidal compositions and processes related thereto” (Dow AgroSciences LLC, priority 2011, dated 2017)
